Literature values in US20110243859A1, “ENCAPSULATING SYSTEM FOR CEST IMAGING WITH CHELATE Q GREATER THAN OR EQUAL TO 2” (GUERBET, priority 2008, published 2011).

conditions: monomeric chelate

In order of rising Value q:
1. O=C(O)CN1CCN(CC(=O)O)CCN(CC(=O)O)CCN(CC(=O)O)CC1 [DOTA]  1
2. CC(O)CN1CCN(CC(=O)O)CCN(CC(=O)O)CCN(CC(=O)O)CC1 (stereo not drawn) [HP-DO3A]  1
3. CC1(N(CC(=O)O)CC(=O)O)CN(CC(=O)O)CCN(CC(=O)O)C1 [AAZTA]  2
4. O=C(O)CN1CCNCCN(CC(=O)O)CCN(CC(=O)O)CC1 [DO3A]  2
5. CC(C(=O)O)N1CCNCCN(C(C)C(=O)O)CCN(C(C)C(=O)O)CC1 (stereo not drawn) [DO3MA]  2
6. CC(CN(CC(=O)O)CC(=O)O)N(CC(=O)O)CC(=O)O (stereo not drawn) [MeDTA]  2
7. CC(C(=O)O)N1CCN(C(C)C(=O)O)CCN(C(C)C(=O)O)CC1 (stereo not drawn) [NOTMA]  2
8. O=C(O)CN1CCN(CC(=O)O)Cc2cccc(n2)CN(CC(=O)O)CC1 [PCTA]  2
9. NC1C(O)C(N)C(O)C(N)C1O (stereo not drawn) [Taci]  2
10. O=C(O)CN1CCNCCN(CC(=O)O)CCNCC1 [DO2A]  3
11. texaphyrin [Tx]  3.5

conditions: spherical liposome, maximum accessible concentration inside

In the case of CC(O)CN1CCN(CC(=O)[O-])CCN(CC(=O)[O-])CCN(CC(=O)[O-])CC1.[Tm+3] (stereo not drawn) [HP-DO3A-Tm], the Delta shift value is listed as 3.5 ppm.
